Results published in PMC3319116 (Journal of Medicinal Chemistry, 2012).

Tested on: MDCK-mdr1 cells
Assay: MDCK-mdr1 permeability assay
Conditions: apical to basal, 3.16 μM, 1 hr, 37°C, pH 7.4; % transported

Cc1c(C(=O)NCC2CCC(CNS(N)(=O)=O)CC2)nn(-c2ccc(Cl)cc2Cl)c1-c1ccc(Cl)cc1 (centres unmarked) [Compound 8]
MDCK-mdr1 permeability A to B: <1%

Cc1c(C(=O)NCC2CCC(CNS(C)(=O)=O)CC2)nn(-c2ccc(Cl)cc2Cl)c1-c1ccc(Cl)cc1 (centres unmarked) [Compound 7]
MDCK-mdr1 permeability A to B: <1%
